Test results taken from US8410247B2, “Water-soluble phosphinothiol reagents” (Wisconsin Alumni Research Foundation, priority 2008, dated 2013).
In brackets after ≈: the same amount, converted by molar mass. Where two headings read alike, the source gives them in different places. One block for each compound: values may come before it.

Tests used:
[1] = Solubility in water or aqueous sodium phosphate buffer; type: physicochemical; conditions: 0.4 M sodium phosphate buffer (pH 7.8)
[2] = cited from earlier work; for pKa: ammonium pKa (Brown 1955)
[3] = Gly+Gly coupling in DMF/D2O (6:1), reported previously; cited from earlier work
[4] = pKa determination by 31P NMR spectroscopy; type: physicochemical; conditions: control experiment, sodium phosphate buffer containing 20% v/v D2O
Procedure: The pKa values of phosphinothiols 33-35 were determined to quantitate the impact of Coulombic effects. […] Thus, the phosphorous pKa value of the cationic phosphinothiols appears to be below the limit of experimental detection. […] (Moore, S. J.; Marzilli, L. G. Inorg. Chem. 1998, 37, 5329-810 5335.) That value is much larger than the phosphorous pKa of phosphinothiols 33-35, consistent with the present hypothesis that through-space Coulombic effects lower the pKa of neighboring atoms, and in particular discourage protonation of the key iminophosphorane intermediate.
pKa Determination of phosphinothiols […] (10 mg) were each dissolved in sodium phosphate buffer containing 20% v/v D2O. 750 The solution was adjusted with a solution of either 6 N HCl or 2 N NaOH, and chemical shifts at each pH were determined by ^31P NMR spectroscopy. An external standard (D3PO4) was used to calibrate the chemical shifts. […] (Podlaha, J.; Podlahova, J. Collect. Czech. Chem. Commun. 1973, 38, 1730-1736.)

[5] = Stability in air / on storage; type: physicochemical; conditions: chloride salt, solid

solubility [1]: ~50 mM (≈ 21.7 mg/mL)
Compound: O=C(O)CNC(=O)c1ccc(P(CS)c2ccc(C(=O)NCC(=O)O)cc2)cc1 [phosphinothiol 9]

Compound: CCP(c1ccccc1)c1ccccc1 [EtPPh2]
phosphorous pKa ([2]; neutral mimic of HSCH2PPh2 (Moore 1998)): 4.90

Compound: NCCCCCCCCN [^+H3N(CH2)8NH3^+]
pKa [2]: 10.10

Compound: NCCCCCN [^+H3N(CH2)5NH3^+]
pKa [2]: 9.74

Compound: CCCCCCCCCN [CH3(CH2)8NH3^+]
pKa [2]: 10.65

Compound: Fc1ccc(P(c2ccc(F)cc2)c2ccc(F)cc2)cc1 [(p-F—C6H4)3P]
phosphorous pKa ([2]; in water (Moore 1998)): 1.97

Compound: COc1ccc(P(c2ccc(OC)cc2)c2ccc(OC)cc2)cc1 [(p-OMe-C6H4)3P]
phosphorous pKa ([2]; in water (Moore 1998)): 4.57

Compound: SCP(c1ccccc1)c1ccccc1 [phosphinothiol 1, (Diphenylphosphino)methanethiol]
second-order rate constant k2 [3]: 0.0077 M⁻¹ s⁻¹

Compound: CCCCCCN [CH3(CH2)5NH3^+]
pKa [2]: 10.63

Compound: c1ccc(P(c2ccccc2)c2ccccc2)cc1 [Ph3P]
phosphorous pKa ([2]; in water (Moore 1998)): 2.73

Compound: O=C(O)CCP(CCC(=O)O)CCC(=O)O [TCEP, tris(2-carboxyethyl)phosphine]
pKa [4]: 7.7
pKa, reported value ([2]; reported value (Podlaha 1973)): 7.66

stability in air [5]: stable in air for several days
solubility ([1]; aqueous buffer, chloride salt, read-out: solubility): > 1000 mM
Compound: CN(C)CCc1ccc(P(CS)c2ccc(CCN(C)C)cc2)cc1 [phosphinothiol 17, bis(p-dimethylaminoethyl) phosphinomethanethiol]
